In brackets after ≈: the same amount, converted by molar mass.

The test concerns Staphylococcus aureus. As to the kind of experiment: antibacterial activity test (minimum concentration inhibitory to growth). Particulars: for MIC: Staphylococcus aureus; for antibacterial activity against Gram-positive bacteria, particularly against Staphylococcus aureus: general statement in words. Format: cell-based.

Regarding `COC(=O)C[C@@H](N)CC(=O)O` [Example 1 (b), β-(S)-aminoglutaric acid mono-methyl ester], the MIC is 10 to 100 µg/mL (≈ 62.1 to 621 µM) and the “antibacterial activity against Gram-positive bacteria, particularly against Staphylococcus aureus” value is “exhibit antibacterial activity”. Regarding `CCOC(=O)C[C@@H](N)CC(=O)O` [Example 2, β-(S)-Aminoglutaric acid mono-ethyl ester], the MIC lay within 20 to 100 µg/mL (≈ 114 to 571 µM) and the “antibacterial activity against Gram-positive bacteria, particularly against Staphylococcus aureus” value was “exhibit antibacterial activity”. In the same order, the values of `COC(=O)C[C@H](N)CC(=O)O` [Example 4, β-(R)-aminoglutaric acid mono- methyl ester] are 20 µg/mL (≈ 124 µM) and “exhibit an antibacterial activity”. Turning to `CCOC(=O)C[C@H](N)CC(=O)O` [Example 7, β-(R)-Aminoglutaric acid mono-ethyl ester], the MIC is 30 to 100 µg/mL (≈ 171 to 571 µM).

Source of the values: patent EP0050799B1, “New processes for the production of di-alkyl esters and optically active mono-alkyl esters of 3-aminoglutaric acid” (ZAIDAN HOJIN BISEIBUTSU KAGAKU KENKYU KAI, priority 1980, dated 1982).
